{"source": "patent US20230398130A1", "about": "“METHODS AND COMPOSITIONS FOR DIFFERENTIATING STEM CELLS” (Massachusetts Institute of Technology, priority 2020, published 2023)", "key": {"ISC-enriched organoids [1]": {"system": "ISC-enriched organoids", "experiment": "Primary screen, 384-well 2.5-D organoid differentiation (ENR+CD, 6 days): basal lysozyme secretion (LYZ.NS)", "type": "cell-based, murine", "details": "for Dose.FC.LYZ.NS: FC vs plate median; for SSMD.LYZ.NS: strictly standardized mean difference", "excerpt": "(§1) High-throughput screening."}, "ISC-enriched organoids [2]": {"system": "ISC-enriched organoids", "experiment": "Primary screen, 384-well 2.5-D organoid differentiation (ENR+CD, 6 days, Target Selective Inhibitor Library, vs whole-plate median): ATP (CellTiter-Glo 3D, CTG)", "details": "for Dose.FC.CTG: FC vs plate median; for SSMD.CTG: strictly standardized mean difference"}, "ISC-enriched organoids [3]": {"system": "ISC-enriched organoids", "experiment": "Primary screen, 384-well 2.5-D organoid differentiation (ENR+CD, 6 days): carbachol-induced lysozyme secretion (LYZ.S)", "type": "cell-based, murine", "details": "for Dose.FC.LYZ.S: FC vs plate median; for Z.LYZ.S: standard z score; for SSMD.LYZ.S: strictly standardized mean difference", "excerpt": "as §1"}, "[4]": {"details": "primary screen, dose 0.08 uM, ENR+CD 6 days"}, "[5]": {"details": "primary screen, dose 0.08 uM, standard z score of FC"}, "[6]": {"details": "primary screen, dose 0.40 uM, ENR+CD 6 days"}, "[7]": {"details": "primary screen, dose 0.40 uM, standard z score of FC"}, "[8]": {"details": "primary screen, dose 2.00 uM, ENR+CD 6 days"}, "[9]": {"details": "primary screen, dose 2.00 uM, standard z score of FC"}, "[10]": {"details": "primary screen, dose 10.00 uM, ENR+CD 6 days"}, "[11]": {"details": "primary screen, dose 10.00 uM, standard z score of FC"}, "[12]": {"details": "Dose 0.08 uM, standard z score of FC"}, "[13]": {"details": "Dose 0.40 uM, standard z score of FC"}, "[14]": {"details": "Dose 2.00 uM, standard z score of FC"}, "[15]": {"details": "Dose 10.00 uM, standard z score of FC"}, "[16]": {"details": "Dose 0.08 uM, primary screen, standard z score"}, "[17]": {"details": "Dose 0.40 uM, primary screen, standard z score"}, "[18]": {"details": "Dose 2.00 uM, primary screen, standard z score"}, "[19]": {"details": "Dose 10.00 uM, primary screen, standard z score"}, "[20]": {"details": "primary screen, 3rd of the 4 dose lines of the treatment (dose not given)"}, "[21]": {"details": "primary screen, 4th of the 4 dose lines of the treatment (dose not given)"}}}
{"compound": "CC(C)c1c(C(=O)Nc2ccccc2)c(-c2ccccc2)c(-c2ccc(F)cc2)n1CC[C@@H](O)C[C@@H](O)CC(=O)[O-].CC(C)c1c(C(=O)Nc2ccccc2)c(-c2ccccc2)c(-c2ccc(F)cc2)n1CC[C@@H](O)C[C@@H](O)CC(=O)[O-].[Ca+2]", "note": "[Atorvastatin Calcium]", "values": [{"measurement": "Dose.FC.LYZ.NS", "setting": "ISC-enriched organoids [1]; [4]", "value": "−0.009", "unit": "log 2 fold change"}, {"measurement": "Z.LYZ.NS", "setting": "ISC-enriched organoids [1]; [5]", "value": "−0.077"}, {"measurement": "Dose.FC.LYZ.NS", "setting": "ISC-enriched organoids [1]; [6]", "value": 0.007, "unit": "log 2 fold change"}, {"measurement": "Z.LYZ.NS", "setting": "ISC-enriched organoids [1]; [7]", "value": 0.062}, {"measurement": "Dose.FC.LYZ.NS", "setting": "ISC-enriched organoids [1]; [8]", "value": "−0.247", "unit": "log 2 fold change"}, {"measurement": "Z.LYZ.NS", "setting": "ISC-enriched organoids [1]; [9]", "value": "−2.148"}, {"measurement": "Dose.FC.LYZ.NS", "setting": "ISC-enriched organoids [1]; [10]", "value": "−0.235", "unit": "log 2 fold change"}, {"measurement": "Z.LYZ.NS", "setting": "ISC-enriched organoids [1]; [11]", "value": "−2.045"}, {"measurement": "Dose.FC.CTG", "setting": "ISC-enriched organoids [2]; [4]", "value": "−0.129", "unit": "log 2 fold change"}, {"measurement": "Z.CTG", "setting": "ISC-enriched organoids [2]; [5]", "value": "−0.309"}, {"measurement": "Dose.FC.CTG", "setting": "ISC-enriched organoids [2]; [6]", "value": "−0.348", "unit": "log 2 fold change"}, {"measurement": "Z.CTG", "setting": "ISC-enriched organoids [2]; [7]", "value": "−0.831"}, {"measurement": "Dose.FC.CTG", "setting": "ISC-enriched organoids [2]; [8]", "value": "−1.085", "unit": "log 2 fold change"}, {"measurement": "Z.CTG", "setting": "ISC-enriched organoids [2]; [9]", "value": "−2.591"}, {"measurement": "Dose.FC.CTG", "setting": "ISC-enriched organoids [2]; [10]", "value": "−1.583", "unit": "log 2 fold change"}, {"measurement": "Z.CTG", "setting": "ISC-enriched organoids [2]; [11]", "value": "−3.780"}, {"measurement": "Dose.FC.LYZ.S", "setting": "ISC-enriched organoids [3]; [4]", "value": 0.022, "unit": "log 2 fold change"}, {"measurement": "Dose.FC.LYZ.S", "setting": "ISC-enriched organoids [3]; [6]", "value": "−0.062", "unit": "log 2 fold change"}, {"measurement": "Dose.FC.LYZ.S", "setting": "ISC-enriched organoids [3]; [8]", "value": "−0.354", "unit": "log 2 fold change"}, {"measurement": "Dose.FC.LYZ.S", "setting": "ISC-enriched organoids [3]; [10]", "value": "−0.305", "unit": "log 2 fold change"}]}
{"compound": "O=C(NC(NC(=S)Nc1ccc(F)c([N+](=O)[O-])c1)C(Cl)(Cl)Cl)C(c1ccccc1)c1ccccc1", "note": "(centres unmarked) [CGK733]", "values": [{"measurement": "Dose.FC.LYZ.NS", "setting": "ISC-enriched organoids [1]; Dose 0.08 uM, ENR+CD, 6 days", "value": 0.099, "unit": "log 2 fold change"}, {"measurement": "Z.LYZ.NS", "setting": "ISC-enriched organoids [1]; [12]", "value": 0.863}, {"measurement": "Dose.FC.LYZ.NS", "setting": "ISC-enriched organoids [1]; Dose 0.40 uM, ENR+CD, 6 days", "value": "−0.026", "unit": "log 2 fold change"}, {"measurement": "Z.LYZ.NS", "setting": "ISC-enriched organoids [1]; [13]", "value": "−0.222"}, {"measurement": "Dose.FC.LYZ.NS", "setting": "ISC-enriched organoids [1]; Dose 2.00 uM, ENR+CD, 6 days", "value": "−0.099", "unit": "log 2 fold change"}, {"measurement": "Z.LYZ.NS", "setting": "ISC-enriched organoids [1]; [14]", "value": "−0.865"}, {"measurement": "Dose.FC.LYZ.NS", "setting": "ISC-enriched organoids [1]; Dose 10.00 uM, ENR+CD, 6 days", "value": "−0.122", "unit": "log 2 fold change"}, {"measurement": "Z.LYZ.NS", "setting": "ISC-enriched organoids [1]; [15]", "value": "−1.063"}, {"measurement": "Dose.FC.CTG", "setting": "ISC-enriched organoids [2]; Dose 0.08 uM, ENR+CD, 6 days", "value": "−0.362", "unit": "log 2 fold change"}, {"measurement": "Z.CTG", "setting": "ISC-enriched organoids [2]; [12]", "value": "−0.864"}, {"measurement": "Dose.FC.CTG", "setting": "ISC-enriched organoids [2]; Dose 0.40 uM, ENR+CD, 6 days", "value": "−0.093", "unit": "log 2 fold change"}, {"measurement": "Z.CTG", "setting": "ISC-enriched organoids [2]; [13]", "value": "−0.221"}, {"measurement": "Dose.FC.CTG", "setting": "ISC-enriched organoids [2]; Dose 2.00 uM, ENR+CD, 6 days", "value": "−0.244", "unit": "log 2 fold change"}, {"measurement": "Z.CTG", "setting": "ISC-enriched organoids [2]; [14]", "value": "−0.582"}, {"measurement": "Dose.FC.CTG", "setting": "ISC-enriched organoids [2]; Dose 10.00 uM, ENR+CD, 6 days", "value": "−0.478", "unit": "log 2 fold change"}, {"measurement": "Z.CTG", "setting": "ISC-enriched organoids [2]; [15]", "value": "−1.143"}, {"measurement": "Dose.FC.LYZ.S", "setting": "ISC-enriched organoids [3]; Dose 0.08 uM, ENR+CD, 6 days", "value": 0.008, "unit": "log 2 fold change"}, {"measurement": "Dose.FC.LYZ.S", "setting": "ISC-enriched organoids [3]; Dose 0.40 uM, ENR+CD, 6 days", "value": "−0.018", "unit": "log 2 fold change"}, {"measurement": "Dose.FC.LYZ.S", "setting": "ISC-enriched organoids [3]; Dose 2.00 uM, ENR+CD, 6 days", "value": "−0.125", "unit": "log 2 fold change"}, {"measurement": "Dose.FC.LYZ.S", "setting": "ISC-enriched organoids [3]; Dose 10.00 uM, ENR+CD, 6 days", "value": "−0.230", "unit": "log 2 fold change"}]}
{"compound": "Cn1cc(/C=C2\\C(=O)Nc3cccnc32)c2ccccc21", "note": "[GW441756]", "values": [{"measurement": "Dose.FC.LYZ.NS", "setting": "ISC-enriched organoids [1]; Dose 0.08 uM, primary screen", "value": 0.046, "unit": "log 2 fold change"}, {"measurement": "Z.LYZ.NS", "setting": "ISC-enriched organoids [1]; [16]", "value": 0.399}, {"measurement": "Dose.FC.LYZ.NS", "setting": "ISC-enriched organoids [1]; Dose 0.40 uM, primary screen", "value": 0.061, "unit": "log 2 fold change"}, {"measurement": "Z.LYZ.NS", "setting": "ISC-enriched organoids [1]; [17]", "value": 0.529}, {"measurement": "Dose.FC.LYZ.NS", "setting": "ISC-enriched organoids [1]; Dose 2.00 uM, primary screen", "value": 0.117, "unit": "log 2 fold change"}, {"measurement": "Z.LYZ.NS", "setting": "ISC-enriched organoids [1]; [18]", "value": 1.023}, {"measurement": "Dose.FC.LYZ.NS", "setting": "ISC-enriched organoids [1]; Dose 10.00 uM, primary screen", "value": 0.088, "unit": "log 2 fold change"}, {"measurement": "Z.LYZ.NS", "setting": "ISC-enriched organoids [1]; [19]", "value": 0.763}, {"measurement": "SSMD.LYZ.NS", "setting": "ISC-enriched organoids [1]; [20]", "value": 1.215}, {"measurement": "SSMD.LYZ.NS", "setting": "ISC-enriched organoids [1]; [21]", "value": 0.357}, {"measurement": "Dose.FC.CTG", "setting": "ISC-enriched organoids [2]; Dose 0.08 uM, primary screen", "value": 0.048, "unit": "log 2 fold change"}, {"measurement": "Z.CTG", "setting": "ISC-enriched organoids [2]; [16]", "value": 0.114}, {"measurement": "Dose.FC.CTG", "setting": "ISC-enriched organoids [2]; Dose 0.40 uM, primary screen", "value": "−0.105", "unit": "log 2 fold change"}, {"measurement": "Z.CTG", "setting": "ISC-enriched organoids [2]; [17]", "value": "−0.252"}, {"measurement": "Dose.FC.CTG", "setting": "ISC-enriched organoids [2]; Dose 2.00 uM, primary screen", "value": 0.152, "unit": "log 2 fold change"}, {"measurement": "Z.CTG", "setting": "ISC-enriched organoids [2]; [18]", "value": 0.364}, {"measurement": "Dose.FC.CTG", "setting": "ISC-enriched organoids [2]; Dose 10.00 uM, primary screen", "value": "−0.113", "unit": "log 2 fold change"}, {"measurement": "Z.CTG", "setting": "ISC-enriched organoids [2]; [19]", "value": "−0.270"}, {"measurement": "SSMD.CTG", "setting": "ISC-enriched organoids [2]; [20]", "value": 0.468}, {"measurement": "SSMD.CTG", "setting": "ISC-enriched organoids [2]; [21]", "value": "−0.350"}, {"measurement": "Dose.FC.LYZ.S", "setting": "ISC-enriched organoids [3]; Dose 0.08 uM, primary screen", "value": 0.075, "unit": "log 2 fold change"}, {"measurement": "Dose.FC.LYZ.S", "setting": "ISC-enriched organoids [3]; Dose 0.40 uM, primary screen", "value": 0.196, "unit": "log 2 fold change"}, {"measurement": "Dose.FC.LYZ.S", "setting": "ISC-enriched organoids [3]; Dose 2.00 uM, primary screen", "value": 0.125, "unit": "log 2 fold change"}, {"measurement": "Dose.FC.LYZ.S", "setting": "ISC-enriched organoids [3]; Dose 10.00 uM, primary screen", "value": 0.071, "unit": "log 2 fold change"}, {"measurement": "Z.LYZ.S", "setting": "ISC-enriched organoids [3]; [20]", "value": 0.806}, {"measurement": "Z.LYZ.S", "setting": "ISC-enriched organoids [3]; [21]", "value": 0.458}, {"measurement": "SSMD.LYZ.S", "setting": "ISC-enriched organoids [3]; [20]", "value": 0.911}, {"measurement": "SSMD.LYZ.S", "setting": "ISC-enriched organoids [3]; [21]", "value": 0.449}]}
